Tests used:
GST-Flk1 = biological target: T1, GST-Flk1 (Mus musculus, UniProt P35918); experiment: GST-FLK-1 bioassay (bio flkGST); type: biochemical
T1 construct: GST-Flk1cd purified from sf9 recombinant baculovirus transformation; host or cells: Sf9 (baculovirus)

PDGFR-β = biological target: T2, PDGFR-β (Homo sapiens, UniProt P09619); experiment: PDGFR bioassay (bio PDGF); type: biochemical
T2 construct: host or cells: NIH 3T3

EGFR = biological target: T3, EGFR (Homo sapiens, UniProt P00533); experiment: EGFR bioassay (bio EGF); type: biochemical
T3 construct: A431 cell lysate (SUGEN, Inc.); host or cells: A431

HER-2 kinase = biological target: T4, HER-2 kinase (Homo sapiens, UniProt P04626); experiment: Cellular HER-2 kinase assay; type: cell-based; conditions: read-out: Her2 Kinase IC50
T4 construct: Use EGFr/HER-2 chimera/3T3-C7 cell line for this assay; It is expressed in mouse NIH 3T3 clone C7 cells; P00533 (Epidermal growth factor receptor)
T4 sequence (P04626 720-987 limits assumed): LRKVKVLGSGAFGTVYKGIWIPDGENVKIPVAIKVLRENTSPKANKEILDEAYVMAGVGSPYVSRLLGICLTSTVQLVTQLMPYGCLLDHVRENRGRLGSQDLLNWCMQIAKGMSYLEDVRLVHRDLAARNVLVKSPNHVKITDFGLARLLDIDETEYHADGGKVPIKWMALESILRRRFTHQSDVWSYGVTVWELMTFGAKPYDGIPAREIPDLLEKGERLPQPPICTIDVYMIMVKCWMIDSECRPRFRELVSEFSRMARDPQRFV

T1 sequence (P35918 784-1345 limits assumed): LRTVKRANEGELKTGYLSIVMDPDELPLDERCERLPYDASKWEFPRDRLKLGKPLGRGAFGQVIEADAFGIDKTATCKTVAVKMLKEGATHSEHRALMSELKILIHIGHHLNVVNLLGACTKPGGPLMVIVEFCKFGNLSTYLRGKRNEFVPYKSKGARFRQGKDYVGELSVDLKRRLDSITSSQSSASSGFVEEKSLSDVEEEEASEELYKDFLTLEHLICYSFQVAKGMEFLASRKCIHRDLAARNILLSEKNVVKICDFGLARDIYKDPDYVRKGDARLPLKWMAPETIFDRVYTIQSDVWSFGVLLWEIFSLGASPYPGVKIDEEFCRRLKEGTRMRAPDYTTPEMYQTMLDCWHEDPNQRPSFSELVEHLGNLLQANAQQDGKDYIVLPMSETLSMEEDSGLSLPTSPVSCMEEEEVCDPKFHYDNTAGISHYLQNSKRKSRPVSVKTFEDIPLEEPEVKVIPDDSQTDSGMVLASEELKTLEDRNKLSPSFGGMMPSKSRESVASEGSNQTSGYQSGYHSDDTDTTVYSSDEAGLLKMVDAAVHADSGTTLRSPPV
T2 sequence (P09619 33-1106): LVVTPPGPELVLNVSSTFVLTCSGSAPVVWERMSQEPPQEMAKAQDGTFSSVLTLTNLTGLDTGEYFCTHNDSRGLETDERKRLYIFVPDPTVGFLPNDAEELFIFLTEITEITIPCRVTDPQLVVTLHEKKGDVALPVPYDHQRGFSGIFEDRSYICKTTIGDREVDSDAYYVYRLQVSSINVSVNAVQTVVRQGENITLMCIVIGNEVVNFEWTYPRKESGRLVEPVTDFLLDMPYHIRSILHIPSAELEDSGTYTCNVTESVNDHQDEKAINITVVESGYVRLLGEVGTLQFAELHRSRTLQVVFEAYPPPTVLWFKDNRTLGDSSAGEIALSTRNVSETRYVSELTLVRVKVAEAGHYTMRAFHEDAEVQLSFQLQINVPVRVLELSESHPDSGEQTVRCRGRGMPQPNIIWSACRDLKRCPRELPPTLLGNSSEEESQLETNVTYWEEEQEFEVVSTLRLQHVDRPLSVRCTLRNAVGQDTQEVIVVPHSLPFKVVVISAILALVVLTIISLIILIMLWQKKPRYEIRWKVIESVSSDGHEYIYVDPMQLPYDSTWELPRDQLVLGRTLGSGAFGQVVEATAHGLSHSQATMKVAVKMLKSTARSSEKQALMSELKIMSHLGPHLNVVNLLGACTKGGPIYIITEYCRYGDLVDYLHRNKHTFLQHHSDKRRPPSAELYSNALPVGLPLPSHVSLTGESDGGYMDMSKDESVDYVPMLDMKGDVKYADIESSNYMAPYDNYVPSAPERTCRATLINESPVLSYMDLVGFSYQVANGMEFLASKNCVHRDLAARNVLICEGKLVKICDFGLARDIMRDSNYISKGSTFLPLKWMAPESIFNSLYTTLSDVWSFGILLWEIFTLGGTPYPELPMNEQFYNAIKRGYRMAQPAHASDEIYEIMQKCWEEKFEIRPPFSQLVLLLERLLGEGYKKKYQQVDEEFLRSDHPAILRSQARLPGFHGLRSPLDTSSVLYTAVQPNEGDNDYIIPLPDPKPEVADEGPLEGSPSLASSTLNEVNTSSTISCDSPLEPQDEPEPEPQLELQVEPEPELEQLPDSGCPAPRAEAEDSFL
T3 sequence (P00533 25-1210): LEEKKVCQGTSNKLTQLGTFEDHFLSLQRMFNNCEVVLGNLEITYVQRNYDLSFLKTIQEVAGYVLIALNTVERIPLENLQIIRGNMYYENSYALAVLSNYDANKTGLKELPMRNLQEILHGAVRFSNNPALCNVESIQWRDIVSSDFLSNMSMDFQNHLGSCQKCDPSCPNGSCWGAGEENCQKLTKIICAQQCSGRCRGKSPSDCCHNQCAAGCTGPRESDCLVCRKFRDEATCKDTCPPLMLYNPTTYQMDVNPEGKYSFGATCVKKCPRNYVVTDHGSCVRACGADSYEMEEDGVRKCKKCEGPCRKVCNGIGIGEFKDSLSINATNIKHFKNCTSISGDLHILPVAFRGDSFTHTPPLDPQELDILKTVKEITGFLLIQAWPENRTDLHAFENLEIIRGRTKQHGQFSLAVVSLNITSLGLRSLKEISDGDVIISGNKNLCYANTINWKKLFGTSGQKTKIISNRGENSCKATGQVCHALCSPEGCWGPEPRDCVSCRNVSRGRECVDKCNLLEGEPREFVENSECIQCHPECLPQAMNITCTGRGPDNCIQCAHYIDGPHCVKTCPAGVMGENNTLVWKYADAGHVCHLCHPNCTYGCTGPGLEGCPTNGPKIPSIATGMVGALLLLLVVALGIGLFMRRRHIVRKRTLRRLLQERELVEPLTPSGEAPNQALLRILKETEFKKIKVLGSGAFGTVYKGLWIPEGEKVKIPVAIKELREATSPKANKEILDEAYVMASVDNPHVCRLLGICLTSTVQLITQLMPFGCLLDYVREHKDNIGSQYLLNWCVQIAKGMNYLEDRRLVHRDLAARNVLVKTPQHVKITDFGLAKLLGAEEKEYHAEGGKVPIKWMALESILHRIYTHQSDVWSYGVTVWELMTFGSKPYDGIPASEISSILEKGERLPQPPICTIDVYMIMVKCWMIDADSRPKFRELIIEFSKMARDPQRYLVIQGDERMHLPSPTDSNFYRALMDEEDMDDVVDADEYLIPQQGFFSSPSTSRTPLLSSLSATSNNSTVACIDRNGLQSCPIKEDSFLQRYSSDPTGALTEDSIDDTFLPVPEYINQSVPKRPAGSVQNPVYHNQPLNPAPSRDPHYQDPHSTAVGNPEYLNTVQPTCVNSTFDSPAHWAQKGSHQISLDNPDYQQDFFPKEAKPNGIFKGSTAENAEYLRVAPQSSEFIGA

Structure (SMILES)	IC50 (GST-Flk1) [µM]	IC50 (PDGFR-β) [µM]	IC50 (EGFR) [µM]	IC50 (HER-2 kinase) [µM]
CCN(CC)CCCNC(=O)c1[nH]c(/C=C2\C(=O)Nc3cc(OC)ccc32)cc1C [Example 16, 5-(6-Methoxy-2-oxo-1,2-dihydroindol-3-ylidenemethyl)-3-methyl-1H-pyrrole-2-carboxylic acid (3-diethylaminopropyl)amide]	–	98.1	–	23.3
CCN(CC)CCCNC(=O)c1[nH]c(/C=C2\C(=O)Nc3ccccc32)cc1C [Example 12, 3-Methyl-5-(2-oxo-1,2-dihydroindol-3-ylidenemethyl)-1H-pyrrole-2-carboxylic acid (3-diethylaminopropyl)amide]	> 20	21.5	> 100	27.7
CCN(CC)CCCNC(=O)c1[nH]c(/C=C2\C(=O)Nc3ccc(Br)cc32)cc1C [Example 13, 5-(5-Bromo-2-oxo-1,2-dihydroindol-3-ylidenemethyl)-3-methyl-1H-pyrrole-2-carboxylic acid (3-diethylaminopropyl)amide]	> 20	81.9	8.17	2.66
Cc1c(C(=O)NCCCN2CCCC2)[nH]c(/C=C2\C(=O)Nc3ccccc32)c1C(=O)c1ccccc1 [Example 23, 4-Benzoyl-3-methyl-5-(2-oxo-1,2-dihydroindol-3-ylidenemethyl)-1H-pyrrole-2-carboxylic acid (3-pyrrolidin-1-ylpropyl)amide]	> 20	> 100	36.6	4.05
CC(=O)c1c(/C=C2\C(=O)Nc3ccc(Br)cc32)[nH]c(C(=O)NCCCN2CCCC2)c1C [Example 30, 4-Acetyl-5-(5-bromo-2-oxo-1,2-dihydroindol-3-ylidenemethyl)-3-methyl-1H-pyrrole-2-carboxylic acid (3-pyrrolidin-1-ylpropyl)amide]	9.4	> 100	18.7	4.1
COc1ccc2c(c1)NC(=O)/C2=C\c1[nH]c(C(=O)NCCCN2CCCC2)c(C)c1C(=O)c1ccccc1 [Example 26, 4-Benzoyl-5-(6-methoxy-2-oxo-1,2-dihydroindol-3-ylidenemethyl)-3-methyl-1H-pyrrole-2-carboxylic acid (3-pyrrolidin-1-ylpropyl)amide]	16	66.9	34.7	10
COc1ccc2c(c1)/C(=C/c1[nH]c(C(=O)NCCCN3CCCC3)c(C)c1C(=O)c1ccccc1)C(=O)N2 [Example 27, 4-Benzoyl-5-(5-methoxy-2-oxo-1,2-dihydroindol-3-ylidenemethyl)-3-methyl-1H-pyrrole-2-carboxylic acid (3-pyrrolidin-1-ylpropyl)amide]	–	> 100	26.5	3.91
Cc1c(C(=O)NCCCN2CCCC2)[nH]c(/C=C2\C(=O)Nc3cc(-c4ccccc4)ccc32)c1C(=O)c1ccccc1 [Example 25, 4-Benzoyl-3-methyl-5-(2-oxo-6-phenyl-1,2-dihydroindol-3-ylidenemethyl)-1H-pyrrole-2-carboxylic acid (3-pyrrolidin-1-ylpropyl)amide]	12.6	–	23.5	7.9
CC(=O)c1c(/C=C2\C(=O)Nc3ccc(Br)cc32)[nH]c(C(=O)NCCCN2CCOCC2)c1C [Example 31, 4-Acetyl-5-(5-bromo-2-oxo-1,2-dihydroindol-3-ylidenemethyl)-3-methyl-1H-pyrrole-2-carboxylic acid (3-morpholin-4-ylpropyl)amide]	–	–	9.83	47.2
CCN(CC)CCCNC(=O)c1[nH]c(/C=C2\C(=O)Nc3ccc(OC)cc32)cc1C [Example 15, 5-(5-Methoxy-2-oxo-1,2-dihydroindol-3-ylidenemethyl)-3-methyl-1H-pyrrole-2-carboxylic acid (3-diethylaminopropyl)amide]	–	–	–	98.6
Cc1c(C(=O)NCCCN2CCOCC2)[nH]c(/C=C2\C(=O)Nc3ccc(Br)cc32)c1C(=O)c1ccccc1 [Example 22, 4-Benzoyl-5-(5-bromo-2-oxo-1,2-dihydroindol-3-ylidenemethyl)-3-methyl-1H-pyrrole-2-carboxylic acid (3-morpholin-4-ylpropyl)amide]	–	–	–	87.7
Cc1c(C(=O)NCCCN2CCCC2)[nH]c(/C=C2\C(=O)Nc3ccc(Br)cc32)c1C(=O)c1ccccc1 [Example 24, 4-Benzoyl-5-(5-bromo-2-oxo-1,2-dihydroindol-3-ylidenemethyl)-3-methyl-1H-pyrrole-2-carboxylic acid (3-pyrrolidin-1-ylpropyl)amide]	–	–	16.8	5.31

Further lines, results first:

IC50 (GST-Flk1) [µM]	IC50 (PDGFR-β) [µM]	IC50 (EGFR) [µM]	IC50 (HER-2 kinase) [µM]	Structure (SMILES)
> 20	> 100	80.4	54.1	CC(=O)c1c(/C=C2\C(=O)Nc3ccc(Br)cc32)[nH]c(C(=O)NCCN2CCCC2)c1C [Example 35, 4-Acetyl-5-(5-bromo-2-oxo-1,2-dihydroindol-3-ylidenemethyl)-3-methyl-1H-pyrrole-2-carboxylic acid (2-pyrrolidin-1-yl-ethyl)amide]
–	21.1	–	–	Cc1[nH]c(/C=C2\C(=O)Nc3ccc(-c4ccccc4)cc32)c(C)c1C(=O)NCCCn1ccnc1 [Example 58, 2,4-Dimethyl-5-(2-oxo-5-phenyl-1,2-dihydroindol-3-ylidenemethyl)-1H-pyrrole-3-carboxylic acid (3-imidazol-1-ylpropyl)amide]
1.94	70.6	9.33	4.25	COc1ccc(-c2ccc3c(c2)NC(=O)/C3=C\c2[nH]c(C)c(C(=O)NCCN3CCCC3)c2C)c(OC)c1 [Example 78, 5-[6-(2,4-Dimethoxy-phenyl)-2-oxo-1,2-dihydroindol-3-ylidenemethyl]-2,4-dimethyl-1H-pyrrole-3-carboxylic acid (2-pyrrolidin-1-yl-ethyl)amide]
15.2	22.5	–	9.91	CCN(CC)CCNC(=O)c1c(C(C)C)[nH]c(/C=C2\C(=O)Nc3ccc(Br)cc32)c1C(C)C [Example 71, 5-(5-Bromo-2-oxo-1,2-dihydroindol-3-ylidenemethyl)-2,4-diisopropyl-1H-pyrrole-3-carboxylic acid (2-diethylaminoethyl)amide]
8	8.32	–	–	CCN(CC)CCNC(=O)c1c(C)[nH]c(/C=C2\C(=O)Nc3cc(-c4cc(Cl)cc(Cl)c4)ccc32)c1C [Example 62, 5-[6-(3,5-Dichloro-phenyl)-2-oxo-1,2-dihydroindol-3-ylidenemethyl]-2,4-dimethyl-1H-pyrrole-3-carboxylic acid (2-diethylaminoethyl)amide]
4.5	7.9	6.52	6.27	CC(C)c1[nH]c(/C=C2\C(=O)Nc3ccc(Br)cc32)c(-c2ccccc2)c1C(=O)NCCCN1CCN(C)CC1 [Example 40, 5-(5-Bromo-2-oxo-1,2-dihydroindol-3-ylidenemethyl)-2-isopropyl-4-phenyl-1H-pyrrole-3-carboxylic acid [3-(4-methyl-piperazin-1-yl)-propyl]amide]
0.21	–	8.59	–	CCN(CC)CCNC(=O)c1c(C)[nH]c(/C=C2\C(=O)Nc3cc(-c4cccnc4)ccc32)c1C [Example 63, 2,4-Dimethyl-5-(2-oxo-6-pyridin-3-yl-1,2-dihydroindol-3-ylidenemethyl)-1H-pyrrole-3-carboxylic acid (2-diethylaminoethyl)amide]

Reference: patent publication US6573293B2, “Pyrrole substituted 2-indolinone protein kinase inhibitors” (Sugen, Inc., priority 2000, dated 2003)
